# Test results reported in PubChem BioAssay AID504530 (Southern Research Specialized Biocontainment Screening …, 2011).
# Tested on: human PBMC cytotoxicity, % cell control
# Experiment: human PBMC cytotoxicity, dose response, cytotoxicity control for HIV-1 antiviral lead project, cell-based, primary PBMCs, TC50 (AID 504530)
row,Compound,CC50
1,Cc1c2c(=O)n(-c3nc4ccccc4s3)nc-2cc(O)n1Cc1cccs1,25.7 µM
2,COc1ccc(Cn2c(O)cc3nn(-c4nc5ccccc5s4)c(=O)c-3c2C)cc1,19.2 µM
3,Cc1c2c(=O)n(-c3nc4ccccc4s3)nc-2cc(O)n1Cc1ccncc1,2.4 µM
4,Cc1c2c(=O)n(-c3nc4ccccc4s3)nc-2cc(O)n1C1CC1,2.6 µM
5,Cc1c2c(=O)n(-c3nc4ccccc4s3)nc-2cc(O)n1Cc1cccnc1,2.15 µM
6,Cc1c2c(=O)n(-c3nc4ccccc4s3)nc-2cc(O)n1Cc1ccccc1Cl,38.9 µM
7,Cc1c2c(=O)n(-c3nc4ccccc4s3)nc-2cc(O)n1CCc1ccc(O)cc1,2.11 µM
8,COc1ccccc1Cn1c(O)cc2nn(-c3nc4ccccc4s3)c(=O)c-2c1C,22 µM
9,COc1ccc(CCn2c(O)cc3nn(-c4nc5ccccc5s4)c(=O)c-3c2C)cc1,60 µM
10,Cc1c2c(=O)n(-c3nc4ccccc4s3)nc-2cc(O)n1CCc1cccs1,71.2 µM
11,Cc1c2c(=O)n(-c3nc4ccccc4s3)nc-2cc(O)n1Cc1ccc(F)cc1,18.7 µM
12,Cc1c2c(=O)n(-c3nc4ccccc4s3)nc-2cc(O)n1CCC(C)C,41.1 µM
